{"source": "the supplement of paper PMC10307832", "test_in_all_cases": "relative viability (nuclei count vs DMSO), 5 days (fraction); higher = more cells survive", "key": {"NCI-H647": {"test_system": "NCI-H647", "summary_of_the_method": "(§1)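 After 5 days of treatment, lung cancer cells in 1536-well plates were fixed and stained in a single step (final 0.05% Triton X-100, 1% formaldehyde, 1 ug/ml Hoechst) and their nuclei counted on 4× images. Treatment had been applied by pin tool the day after seeding as one drug alone or as a fixed anchor-drug dose with five library-drug doses (not always all listed) in √10 steps. Relative viability is the nuclei count of treated wells divided by that of vehicle wells, and values are medians of duplicate plates.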"}, "EPLC-272H": {"test_system": "EPLC-272H", "summary_of_the_method": "as §1"}, "SW 1573": {"test_system": "SW 1573", "summary_of_the_method": "as §1"}, "LCLC-97TM1": {"test_system": "LCLC-97TM1", "summary_of_the_method": "as §1"}, "PC-3 [JPC-3]": {"test_system": "PC-3 [JPC-3]", "summary_of_the_method": "as §1"}, "HCC-44": {"test_system": "HCC-44", "summary_of_the_method": "as §1"}, "H3255": {"test_system": "H3255", "summary_of_the_method": "as §1"}, "BEN": {"test_system": "BEN", "summary_of_the_method": "as §1"}, "NCI-H650": {"test_system": "NCI-H650", "summary_of_the_method": "as §1"}, "201T": {"test_system": "201T", "summary_of_the_method": "as §1"}, "NCI-H2170": {"test_system": "NCI-H2170", "summary_of_the_method": "as §1"}, "NCI-H2085": {"test_system": "NCI-H2085", "summary_of_the_method": "as §1"}, "NCI-H1437": {"test_system": "NCI-H1437", "summary_of_the_method": "as §1"}, "NCI-H2342": {"test_system": "NCI-H2342", "summary_of_the_method": "as §1"}, "NCI-H2087": {"test_system": "NCI-H2087", "summary_of_the_method": "as §1"}, "LU99A": {"test_system": "LU99A", "summary_of_the_method": "as §1"}, "NCI-H1975": {"test_system": "NCI-H1975", "summary_of_the_method": "as §1"}, "HCC-827": {"test_system": "HCC-827", "summary_of_the_method": "as §1"}, "COR-L 105": {"test_system": "COR-L 105", "summary_of_the_method": "as §1"}, "EKVX": {"test_system": "EKVX", "summary_of_the_method": "as §1"}, "NCI-H1666": {"test_system": "NCI-H1666", "summary_of_the_method": "as §1"}, "LOU-NH91": {"test_system": "LOU-NH91", "summary_of_the_method": "as §1"}}, "data": [{"smiles": "COc1nc(C)cnc1NS(=O)(=O)c1cccnc1-c1ccc(-c2nnco2)cc1", "note": "[Zibotentan] + Nc1ncn([C@H]2C[C@H](O)[C@@H](CO)O2)c(=O)n1 [Decitabine] (partner 2 µM)", "values": [{"measurement": "relative viability", "setting": "NCI-H647; first compound 0.08 µM", "result": 0.438}, {"measurement": "relative viability", "setting": "NCI-H647; first compound 0.253 µM", "result": 0.341}, {"measurement": "relative viability", "setting": "NCI-H647; first compound 0.8 µM", "result": 0.448}, {"measurement": "relative viability", "setting": "NCI-H647; first compound 2.53 µM", "result": 0.509}, {"measurement": "relative viability", "setting": "EPLC-272H; first compound 0.08 µM", "result": 0.41}, {"measurement": "relative viability", "setting": "EPLC-272H; first compound 0.253 µM", "result": 0.304}, {"measurement": "relative viability", "setting": "EPLC-272H; first compound 0.8 µM", "result": 0.366}, {"measurement": "relative viability", "setting": "EPLC-272H; first compound 2.53 µM", "result": 0.394}, {"measurement": "relative viability", "setting": "SW 1573; first compound 0.08 µM", "result": 0.611}, {"measurement": "relative viability", "setting": "SW 1573; first compound 0.8 µM", "result": 0.702}, {"measurement": "relative viability", "setting": "SW 1573; first compound 2.53 µM", "result": 0.613}, {"measurement": "relative viability", "setting": "LCLC-97TM1; first compound 0.08 µM", "result": 0.26}, {"measurement": "relative viability", "setting": "LCLC-97TM1; first compound 0.253 µM", "result": 0.266}, {"measurement": "relative viability", "setting": "LCLC-97TM1; first compound 0.8 µM", "result": 0.229}, {"measurement": "relative viability", "setting": "LCLC-97TM1; first compound 2.53 µM", "result": 0.246}, {"measurement": "relative viability", "setting": "PC-3 [JPC-3]; first compound 0.08 µM", "result": 0.836}, {"measurement": "relative viability", "setting": "PC-3 [JPC-3]; first compound 0.253 µM", "result": 0.777}, {"measurement": "relative viability", "setting": "PC-3 [JPC-3]; first compound 0.8 µM", "result": 0.85}, {"measurement": "relative viability", "setting": "PC-3 [JPC-3]; first compound 2.53 µM", "result": 0.851}, {"measurement": "relative viability", "setting": "HCC-44; first compound 0.08 µM", "result": 1.01}, {"measurement": "relative viability", "setting": "HCC-44; first compound 0.253 µM", "result": 0.924}, {"measurement": "relative viability", "setting": "HCC-44; first compound 0.8 µM", "result": 1.01}, {"measurement": "relative viability", "setting": "HCC-44; first compound 2.53 µM", "result": 0.988}, {"measurement": "relative viability", "setting": "H3255; first compound 0.08 µM", "result": 0.671}, {"measurement": "relative viability", "setting": "H3255; first compound 0.253 µM", "result": 0.601}, {"measurement": "relative viability", "setting": "H3255; first compound 0.8 µM", "result": 0.586}, {"measurement": "relative viability", "setting": "H3255; first compound 2.53 µM", "result": 0.564}, {"measurement": "relative viability", "setting": "BEN; first compound 0.08 µM", "result": 0.784}, {"measurement": "relative viability", "setting": "BEN; first compound 0.253 µM", "result": 0.691}, {"measurement": "relative viability", "setting": "BEN; first compound 0.8 µM", "result": 0.734}, {"measurement": "relative viability", "setting": "BEN; first compound 2.53 µM", "result": 0.646}, {"measurement": "relative viability", "setting": "NCI-H650; first compound 0.08 µM", "result": 0.298}, {"measurement": "relative viability", "setting": "NCI-H650; first compound 0.253 µM", "result": 0.297}, {"measurement": "relative viability", "setting": "NCI-H650; first compound 0.8 µM", "result": 0.352}, {"measurement": "relative viability", "setting": "NCI-H650; first compound 2.53 µM", "result": 0.311}, {"measurement": "relative viability", "setting": "201T; first compound 0.08 µM", "result": 0.841}, {"measurement": "relative viability", "setting": "201T; first compound 0.253 µM", "result": 0.865}, {"measurement": "relative viability", "setting": "201T; first compound 0.8 µM", "result": 0.855}, {"measurement": "relative viability", "setting": "201T; first compound 2.53 µM", "result": 0.919}, {"measurement": "relative viability", "setting": "NCI-H2170; first compound 0.08 µM", "result": 0.449}, {"measurement": "relative viability", "setting": "NCI-H2170; first compound 0.253 µM", "result": 0.463}, {"measurement": "relative viability", "setting": "NCI-H2170; first compound 0.8 µM", "result": 0.341}, {"measurement": "relative viability", "setting": "NCI-H2170; first compound 2.53 µM", "result": 0.463}, {"measurement": "relative viability", "setting": "NCI-H2085; first compound 0.08 µM", "result": 0.566}, {"measurement": "relative viability", "setting": "NCI-H2085; first compound 0.253 µM", "result": 0.54}, {"measurement": "relative viability", "setting": "NCI-H2085; first compound 0.8 µM", "result": 0.592}, {"measurement": "relative viability", "setting": "NCI-H2085; first compound 2.53 µM", "result": 0.56}, {"measurement": "relative viability", "setting": "NCI-H1437; first compound 0.08 µM", "result": 0.534}, {"measurement": "relative viability", "setting": "NCI-H1437; first compound 0.253 µM", "result": 0.545}, {"measurement": "relative viability", "setting": "NCI-H1437; first compound 0.8 µM", "result": 0.564}, {"measurement": "relative viability", "setting": "NCI-H1437; first compound 2.53 µM", "result": 0.556}, {"measurement": "relative viability", "setting": "NCI-H2342; first compound 0.08 µM", "result": 0.659}, {"measurement": "relative viability", "setting": "NCI-H2342; first compound 0.253 µM", "result": 0.776}, {"measurement": "relative viability", "setting": "NCI-H2342; first compound 0.8 µM", "result": 0.707}, {"measurement": "relative viability", "setting": "NCI-H2342; first compound 2.53 µM", "result": 0.71}, {"measurement": "relative viability", "setting": "NCI-H2087; first compound 0.08 µM", "result": 0.342}, {"measurement": "relative viability", "setting": "NCI-H2087; first compound 0.253 µM", "result": 0.287}, {"measurement": "relative viability", "setting": "NCI-H2087; first compound 0.8 µM", "result": 0.325}, {"measurement": "relative viability", "setting": "NCI-H2087; first compound 2.53 µM", "result": 0.331}, {"measurement": "relative viability", "setting": "LU99A; first compound 0.08 µM", "result": 0.933}, {"measurement": "relative viability", "setting": "LU99A; first compound 0.253 µM", "result": 0.848}, {"measurement": "relative viability", "setting": "LU99A; first compound 0.8 µM", "result": 0.95}, {"measurement": "relative viability", "setting": "LU99A; first compound 2.53 µM", "result": 1.06}, {"measurement": "relative viability", "setting": "NCI-H1975; first compound 0.08 µM", "result": 0.565}, {"measurement": "relative viability", "setting": "NCI-H1975; first compound 0.253 µM", "result": 0.384}, {"measurement": "relative viability", "setting": "NCI-H1975; first compound 0.8 µM", "result": 0.403}, {"measurement": "relative viability", "setting": "NCI-H1975; first compound 2.53 µM", "result": 0.377}, {"measurement": "relative viability", "setting": "HCC-827; first compound 0.08 µM", "result": 0.341}, {"measurement": "relative viability", "setting": "HCC-827; first compound 0.253 µM", "result": 0.333}, {"measurement": "relative viability", "setting": "HCC-827; first compound 0.8 µM", "result": 0.341}, {"measurement": "relative viability", "setting": "HCC-827; first compound 2.53 µM", "result": 0.343}, {"measurement": "relative viability", "setting": "COR-L 105; first compound 0.08 µM", "result": 0.634}, {"measurement": "relative viability", "setting": "COR-L 105; first compound 0.253 µM", "result": 0.609}, {"measurement": "relative viability", "setting": "COR-L 105; first compound 0.8 µM", "result": 0.711}, {"measurement": "relative viability", "setting": "COR-L 105; first compound 2.53 µM", "result": 0.615}, {"measurement": "relative viability", "setting": "EKVX; first compound 0.08 µM", "result": 0.325}, {"measurement": "relative viability", "setting": "EKVX; first compound 0.253 µM", "result": 0.339}, {"measurement": "relative viability", "setting": "EKVX; first compound 0.8 µM", "result": 0.286}, {"measurement": "relative viability", "setting": "EKVX; first compound 2.53 µM", "result": 0.346}, {"measurement": "relative viability", "setting": "NCI-H1666; first compound 0.08 µM", "result": 0.71}, {"measurement": "relative viability", "setting": "NCI-H1666; first compound 0.253 µM", "result": 0.685}, {"measurement": "relative viability", "setting": "NCI-H1666; first compound 0.8 µM", "result": 0.745}, {"measurement": "relative viability", "setting": "NCI-H1666; first compound 2.53 µM", "result": 0.56}, {"measurement": "relative viability", "setting": "LOU-NH91; first compound 0.08 µM", "result": 0.799}, {"measurement": "relative viability", "setting": "LOU-NH91; first compound 0.253 µM", "result": 0.78}, {"measurement": "relative viability", "setting": "LOU-NH91; first compound 0.8 µM", "result": 0.879}, {"measurement": "relative viability", "setting": "LOU-NH91; first compound 2.53 µM", "result": 0.815}]}]}
